Results on 7 molecules are retold here after publication PMC5458187, “Inhibitor SBFI26 suppresses the malignant progression of castration-resistant PC3-M cells by competitively binding to oncogenic FABP5” (Oncotarget, 2017).

“And” between values parts separate entries of the source, which are not always exact repeats. Identical values can stand only once.

One assay deals with wtrFABP5 (Homo sapiens, UniProt Q01469). In words: DAUDA displacement assay (ligand binding). As to conditions: for relative level of fluorescence intensity after adding ligand to the DAUDA-wtrFABP5 complex: 10 μM ligand, 2 μM DAUDA, 3 μM wtrFABP5, complex without ligand 2.65 ± 0.14; for Ki: displacement of 2 μM DAUDA from 3 μM wtrFABP5, ligand 0.5–20 μM, Ki = IC50/1+(DAUDA/Kd), read-out: inhibition constant Ki (binding affinity). The text has this:
The fatty acid-binding ability of wtrFABP5 was examined by using the DAUDA displacement assay which used fatty acids and different chemical compounds to replace the fluorescently labelled fatty acid analogue DAUDA (Cayman). […] For each experiment, the fluorescence data were normalized to the peak fluorescent intensity, and then subtracted from the data of samples without protein. The data were fitted by nonlinear regression using GraphPad Prism software to a saturation binding curve model to estimate the apparent dissociation constant (Kd) and maximal fluorescence intensity (Bmax). […] The Ki of each ligand was determined using the equation Ki = IC50/1+ (DAUDA concentration /Kd).

Assay [1] relates to p-PPARγ1 and p-PPARγ2 in PC3-M cells. In words: Western blot of phosphorylated PPARγ in PC3-M cells. Type of assay: cell-based, human. As to conditions: for reduction in level of p-PPARγ1 / reduction in level of p-PPARγ2: untreated set at 1. In general terms: A western blot detects proteins with antibodies after separation by electrophoresis.
The subject of assay [2] is PC3-M cells. The assay can be described thus: Soft-agar colony formation assay. The assay is classed as cell-based, human. The following applies: 100 μM. As to the method:
Low melting agarose was seeded in 6-well plates and 5 × 10^4 cells/well layered on agar, followed by 200 μl of medium alone or medium with FABP5 inhibitor SBFI26. Colonies larger than 300 μm in each well were counted 2 weeks later in a similar way to that described previously.

In assay [3] the test system is PC3-M cells. In words: Proliferation MTT assay. Type of assay: cell-based, human. As to conditions: 100 μM. As to the method: (§1) PC3-M cells (5 × 10^4) were plated in triplicate in 96 well plates and incubated overnight. Cells were treated with different concentrations of SBFI26 (25–125 μM) for 24 h. Cell viability was assessed using MTT assay, as described previously. The anti-proliferative effect of the best concentration for SBFI26 was determined after 6 days of treatment.
For orientation: Tetrazolium dyes change colour on reduction, which living cells bring about.

The next assay has as its system PPARγ. On the set-up: method as in PMID 23236415. The following applies: cited from earlier work.
For assay [4], the system named is PC3-M cells inoculated into the right flank. The assay can be described thus: Subcutaneous nude mouse tumorigenicity assay. Type of assay: in vivo, nude mice. As to the method:
PC3-M cells (2 × 10^6) in 200 μL PBS were subcutaneously injected into the right flank region of the mouse (6–8 week old) to test the suppressive effect of the inhibitors on tumorigenicity. In the first round, 3 groups of mice (8 each) were used: 1) control with PBS; 2) 1mg/kg SBFI26, injected from the 1st day after cell inoculation; 3) 1mg/kg SBFI26, injected from the 7th day after cell inoculation. In the second round, 2 groups of mice (5 each) were used and at 7 days after the cell inoculation, each group was subjected to different intra-tumoural injections: 1) control with PBS; 2) PPARγ antagonist (GW9662, 1mg/kg) (Sigma). The injections were repeated every 2 days for 30 days, tumour size was measured every 3–4 days and the volume calculated by the formula of L× W×H×0.5236 [56]. Work was performed in accordance with UKCCCR guidelines under Home Office License PPL40/2963.

For assay [5], the system named is PC3-M cells. The assay can be described thus: Boyden chamber invasion assay. Type of assay: cell-based, human. As to conditions: 100 μM, 24 h. As to the method:
PC3-M cells in serum-free medium were seeded in the upper Boyden chamber (BD Biosciences) in triplicate at a density of 2.5 × 10^4 cells per well in serum-free medium. Complete medium was added to the lower chambers. After 3 hours of incubation, 100 μM SBFI26 was added to the upper chambers. After 24 h of incubation, cells that invaded the lower chambers were stained with crystal violet and counted with a cell counter.

Assay [6] concerns PC3-M-Luc8 cells implanted orthotopically into the prostate gland. The assay can be described thus: Orthotopic nude mouse assay of tumorigenicity and metastasis. Type of assay: in vivo, Balb/c nude mice. As to the method:
PC3-M cells were transfected with the pGL4.50 [luc2/CMV/Hygro] vector (Promega) using FuGene HD transfection reagent (Promega) following the manufacturer’s instructions. Individual colonies were isolated by ring cloning and 3 colonies that stably-expressed the highest bioluminescence signals were identified using D-luciferin (Promega) with a Varioskan Flash Reader (Thermo Scientific). Association of the luminescence intensity with the number of cells was assessed by an IVIS imaging system (Perkin Elmer). Cells (5 × 10^5) from PC3-M- luc2 colony were suspended in 30 μL PBS and orthotopically implanted into the dorsal prostate of 33 male Balb/c nude mice (Charles River, UK) (8–10 weeks old), as described previously. One week later, tumour-bearing mice were divided into 2 groups (8 each) and subjected to the following intraperitoneally injections: 1) control with PBS; 2) SBFI26, 1mg/kg. Injections were repeated every two days for 25 days and the metastatic loci were monitored weekly using the IVIS after mice were subcutaneously injected with D-luciferin (150 mg/kg). Bioluminescence images was analysed using the Living Imagine software (Xenogen) and the measurement recorded was based on total photons/second (p/s) within each defined region of interest.

The subject of assay [7] is PC3-M cells. In words: Wound healing migration assay. The assay is classed as cell-based, human. The following applies: 100 μM, 24 h; control gap closure 94%. As to the method:
Wound healing migration assay was carried out to evaluate the effect of SBFI26 on the migratory rate of PC3-M cells. Wounds were generated by scratching the monolayer cells with a blue pipette tip. The floating cells were removed by washing with PBS and inhibitors were added to the culture medium. The wound was photographed under the microscope at 0, 12 and 24 h after treatment and the wound widths were assessed by quantitative analysis using ImageJ software.

For assay [8], the system named is fatty acid uptake of PC3-M cells. In words: Fatty acid uptake assay with BODIPY-labelled fatty acid. Type of assay: cell-based, human. As to conditions: 30 min; for cells with BODIPY-labelled fatty acid uptake (M2): control 92.9%. As to the method:
Assay for fatty acid uptake was performed using red fluorescence-labelled BODIPY [57]. The fluorescence intensity from cells before and 30 minutes after adding BODIPY was measured to determine fatty acid uptake. In inhibition and competition experiments, different concentrations of unlabelled lead compound SBFI26 (50–200 μM) with the same concentration of labelled BODIPY were added directly to the highly malignant PC3-M cells.

In assay [9] the test system is PC3-M cells. The assay can be described thus: Cell viability MTT assay. The assay is classed as cell-based, human. As to conditions: 24 h. As for the experimental part:
as §1

For assay [10], the system named is p-PPARγ1 and p-PPARγ2 in 22RV1 cells. The assay can be described thus: Western blot of phosphorylated PPARγ in 22RV1 cells. The following applies: for effect on levels of p-PPARγ1 and 2: 22RV1, 24 h. Type of assay: cell-based, human.

Sequence of wtrFABP5 (Q01469 whole entry): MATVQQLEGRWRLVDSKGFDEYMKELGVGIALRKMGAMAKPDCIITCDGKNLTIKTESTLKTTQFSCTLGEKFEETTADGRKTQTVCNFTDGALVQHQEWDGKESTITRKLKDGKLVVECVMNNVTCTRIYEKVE

For `CCCCCCCC/C=C\CCCCCCCC(=O)O` [oleic acid], at wtrFABP5, the “relative level of fluorescence intensity after adding ligand to the DAUDA-wtrFABP5 complex” value is 1.68 ± 0.09 and the Ki (commonly a measure of affinity in units of concentration, obtained from inhibition or displacement) stood at 1890 nM.
Turning to `CN(CCOc1ccc(CC2SC(=O)NC2=O)cc1)c1ccccn1` (centres unmarked) [rosiglitazone], the “effect on levels of p-PPARγ isoforms” value in assay [1] (24 hours) was “significantly increased levels of both p-PPARγ isoforms”.
As for `O=C(O)C1C(c2ccccc2)C(C(=O)Oc2cccc3ccccc23)C1c1ccccc1` (stereo not drawn) [SBFI26, α-truxillic acid 1-naphthyl mono-ester], in the assay on PC3-M cells [2] (2 weeks, vs control), the “inhibition of colony formation” value was determined as 100%. In addition, the “number of colonies formed in soft agar” value in the assay with PC3-M cells [2] (after 2 weeks, control 124 ± 18) was found to be 0. The “reduction of proliferation rate” value with PC3-M cells [3] amounted to 17 times. Moreover, the “average reduction in both PPARγ activated isoforms” value in assay [1] is on record as “about 50%”; in [10] (22RV1) it was 33.5%. Besides, in assay [1] (24 hours), the “reduction in level of p-PPARγ1” value is 44%. For the same molecule, in assay [1] (24 hours), the “reduction in level of p-PPARγ2” value amounted to 46%. The “activity at PPARγ” value in the assay on PPARγ is given as “weak agonist of PPARγ”. Also, the “suppression of tumour volume vs control” value in [4] (SBFI26 1 mg/kg for 31 days) is given as 52%. Besides, in assay [4] (SBFI26 1 mg/kg for 31 days, n = 8, control 627 ± 120 mm^3), the “average tumour volume on termination” value is 302 ± 86 mm^3. Besides, the suppression of invasion with PC3-M cells [5] (vs control) is recorded as 95.5%. The “mean number of invaded cells” value with PC3-M cells [5] (control 22 ± 3) turned out to be 1 ± 1. Further, in assay [6] (25 days, 1 mg/kg i.p.), the “suppression in metastasis incidence compared to control” value is listed as 50%. Besides, the “mice that produced visceral metastasis (number/total)” value in assay [6] (25 days, 1 mg/kg i.p., control 7/7) is recorded as 4/8. Moreover, the “mice that produced visceral metastasis” value in assay [6] (25 days, 1 mg/kg i.p., control 100%) is 50%. In addition, the “metastasis sites by histological staining” value in assay [6] (H&E, control: all mice, mainly liver and lung) is “half of the mice developed liver metastases with no metastasis in the lung”. Also, the bioluminescence signal in assay [6] (day 25, 1 mg/kg intraperitoneally, control 31.5 × 10^8) was 6.66 × 10^8 p/sec/cm^2. In addition, in the assay on PC3-M cells [7], the “reduction in wound size” value is 19%. Moreover, the “unstained cells (M1)” value in [8] (50 μM) is 20.76%; in assay [8] (100 μM), 32.31%; in [8] (150 μM), 30.88%; in [8] (200 μM), 30.79%. The “cells with BODIPY-labelled fatty acid uptake (M2)” value was 79.24% in [8] (50 μM); 67.7% and 67.69% in assay [8] (100 μM); 69.12% in [8] (150 μM); 69.21% in [8] (200 μM). Moreover, the “reduction in cell numbers” value in the assay on PC3-M cells [9] (100 μM) is given as 26%. Besides, in the assay with PC3-M cells [9] (MTT), the “concentration producing maximum suppression of viability” value is 100 µM. Besides, the “effect on levels of p-PPARγ1 and 2” value in assay [10] is “suppressed the levels of both p-PPARγ isoforms”.
Regarding `CN(C)c1cccc2c(S(=O)(=O)NCCCCCCCCCCC(=O)O)cccc12` [DAUDA], the Kd at wtrFABP5 (3 μM wtrFABP5 titrated with DAUDA 0.4–3 μM, ex 345/em 530 nm, read-out: apparent dissociation constant (Kd) of DAUDA to wtrFABP5) came to 1860 ± 160 nM. In addition, the “maximal fluorescence intensity (Bmax)” value on wtrFABP5 (DAUDA titration to 3 μM wtrFABP5) is listed as 3.579.
As to `O=C(Nc1ccccc1)c1cc([N+](=O)[O-])ccc1Cl` [GW9662], in [1] (24 hours), the “reduction in level of p-PPARγ1” value was determined as 52% and the “reduction in level of p-PPARγ2” value was 51%. Also, the “suppression of tumour size vs control” value in assay [4] (GW9662 1 mg/kg from day 7) is 67%. Besides, the “average size of tumours” value in assay [4] (GW9662 1 mg/kg intra-tumoural from day 7, n = 5, control 774 ± 202 mm^3) is 252 ± 84 mm^3.
As to `CCCCC/C=C\C/C=C\CCCCCCCC(=O)O` [linoleic acid], on wtrFABP5, the “relative level of fluorescence intensity after adding ligand to the DAUDA-wtrFABP5 complex” value worked out at 1.37 ± 0.07 and the Ki came out at 1570 nM.
Regarding “wtrFABP5: FABP5 protein (wtrFABP5) used as binding target and as treatment of 22RV1 cells”, in assay [10], the “effect on levels of p-PPARγ1 and 2” value was “significantly increased levels of both p-PPARγ1 and 2”.
